Measurements published in patent US20100305120A1, “COMPOUNDS FOR TREATING MUSCULAR DYSTROPHY” (BIOMARIN IGA LIMITED, priority 2008, published 2010).

System: Utrophin A promoter linked to a luciferase reporter gene
Test: Luciferase reporter assay (murine H2K cells), H2K/mdx/Utro A reporter cell line
Type: cell-based
Conditions: 48 h, mdx mouse H2K Utrophin A reporter cells, read-out: Activity (luciferase level relative to control); for activity at 10 µM: test compound concentration 10 μM
How it was run: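 Immortalized mdx mouse H2K myoblasts stably carrying ~5 kb utrophin A promoter–luciferase construct, kept at 33 °C, 10% CO2. Compound added 24 h after plating, typically at 10 μM final, for 48 h; luciferase measured by cell lysis and luminescence.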

CCc1ccc(Cn2nc(C(=O)Nc3ccc4c(c3)OCO4)c3ccccc32)cc1 [Compound 132, N-(benzo[d][1,3]dioxol-5-yl)-1-(4-ethylbenzyl)-1H-indazole-3-carboxamide] gave an activity at 10 µM of 201 to 300%.
In the case of Cc1ccc(NC(=O)c2nn(Cc3ccc(S(C)(=O)=O)cc3)c3ccccc23)cn1 [Compound 133, N-(6-methylpyridin-3-yl)-1-(4-(methylsulfonyl)benzyl)-1H-indazole-3-carboxamide], the activity at 10 µM is reported as < 200%.
For Cc1ccc(NC(=O)c2nn(Cc3ccc(S(C)(=O)=O)cc3)c3ccccc23)nc1 [Compound 134, N-(5-methylpyridin-2-yl)-1-(4-(methylsulfonyl)benzyl)-1H-indazole-3-carboxamide], the activity at 10 µM was < 200%.
Compound CN(C)C(=O)c1cccc(Cn2nc3ccccc3c2C(=O)Nc2ccc3c(c2)OC(F)(F)O3)c1 [Compound 135, N-(2,2-difluorobenzo[d][1,3]dioxol-5-yl)-2-(3-(dimethylcarbamoyl)benzyl)-2H-indazole-3-carboxamide] has an activity at 10 µM of 201 to 300%.
With CS(=O)(=O)c1ccccc1Cn1nc(C(=O)Nc2ccc3c(c2)OCO3)c2ccccc21 [Compound 136, N-(benzo[d][1,3]dioxol-5-yl)-1-(2-(methylsulfonyl)benzyl)-1H-indazole-3-carboxamide] the activity at 10 µM was < 200%.
O=C(Nc1ccc2c(c1)OCO2)c1nn(Cc2ccc(S(=O)(=O)N3CCOCC3)cc2)c2ccccc12 [Compound 137, N-(benzo[d][1,3]dioxol-5-yl)-1-(4-(morpholinosulfonyl)benzyl)-1H-indazole-3-carboxamide] was tested, and the activity at 10 µM was 201 to 300%.
In the case of Cc1ccc(NC(=O)c2nn(Cc3ccc(C(=O)N(C)C)cc3)c3ccccc23)cc1 [Compound 138, 1-(4-(dimethylcarbamoyl)benzyl)-N-p-tolyl-1H-indazole-3-carboxamide], the activity at 10 µM is reported as 201 to 300%.
With CC(C)c1ccc(NC(=O)c2nn(Cc3ccc(C(=O)N(C)C)cc3)c3ccccc23)cc1 [Compound 139, 1-(4-(dimethylcarbamoyl)benzyl)-N-(4-isopropylphenyl)-1H-indazole-3-carboxamide] the activity at 10 µM was < 200%.
With CS(=O)(=O)c1ccc(C(=O)n2nc(C(=O)Nc3ccc4c(c3)OCO4)c3ccccc32)cc1 [Compound 140, N-(benzo[d][1,3]dioxol-5-yl)-1-(4-(methylsulfonyl)benzoyl)-1H-indazole-3-carboxamide] the activity at 10 µM was 301 to 400%.
For O=C(Nc1ccc2c(c1)OCO2)c1nn(Cc2ccc3ccccc3c2)c2ccccc12 [Compound 141, N-(benzo[d][1,3]dioxol-5-yl)-1-(naphthalen-2-ylmethyl)-1H-indazole-3-carboxamide], the activity at 0.3 µM (test compound concentration 0.3 μM) was < 200%.
O=C(Nc1ccc2c(c1)OCO2)c1nn(Cc2ccc(C(=O)N3CCCC3)cc2)c2ccccc12 [Compound 142, N-(benzo[d][1,3]dioxol-5-yl)-1-(4-(pyrrolidine-1-carbonyl)benzyl)-1H-indazole-3-carboxamide] showed an activity at 10 µM of 201 to 300%.
O=C(Nc1ccc2c(c1)OCCO2)c1nn(Cc2ccc(C(=O)N3CCOCC3)cc2)c2ccccc12 [Compound 143, N-(2,3-dihydrobenzo[b][1,4]dioxin-6-yl)-1-(4-(morpholine-4-carbonyl)benzyl)-1H-indazole-3-carboxamide] was tested, and the activity at 10 µM was 301 to 400%.
In the case of COc1ccc(NC(=O)c2nn(Cc3ccc(C(=O)N4CCOCC4)cc3)c3ccccc23)cc1 [Compound 144, N-(4-methoxyphenyl)-1-(4-(morpholine-4-carbonyl)benzyl)-1H-indazole-3-carboxamide], the activity at 10 µM is reported as 301 to 400%.
In the case of O=C(Nc1ccc2c(c1)OCO2)c1nn(Cc2ccon2)c2ccccc12 [Compound 145, N-(benzo[d][1,3]dioxol-5-yl)-1-(isoxazol-3-ylmethyl)-1H-indazole-3-carboxamide], the activity at 10 µM is reported as < 200%.
In the case of CS(=O)(=O)c1ccc(Cn2cc(C(=O)Nc3ccc4c(c3)OCO4)c3ccccc32)cc1 [Compound 146, N-(benzo[d][1,3]dioxol-5-yl)-1-(4-(methylsulfonyl)benzyl)-1H-indole-3-carboxamide], the activity at 10 µM is reported as < 200%.
CCn1ccc(C(=O)Nc2ccc(Cl)cc2Cl)n1 [Compound 147, N-(2,4-dichlorophenyl)-1-ethyl-1H-pyrazole-3-carboxamide] was tested, and the activity at 10 µM was < 200%.
For CS(=O)(=O)c1ccc(Cn2ccc(C(=O)Nc3ccc4c(c3)OCO4)n2)cc1 [Compound 148, N-(benzo[d][1,3]dioxol-5-yl)-1-(4-(methylsulfonyl)benzyl)-1H-pyrazole-3-carboxamide], the activity at 30 µM (test compound concentration 30 μM) was < 200%.
With CS(=O)(=O)c1ccc(Cn2nc(C(=O)Nc3ccc4c(c3)OCO4)c3c2CCCC3)cc1 [Compound 149, N-(benzo[d][1,3]dioxol-5-yl)-1-(4-(methylsulfonyl)benzyl)-4,5,6,7-tetrahydro-1H-indazole-3-carboxamide] the activity at 0.1 µM (test compound concentration 0.1 μM) was < 200%.
CS(=O)(=O)c1ccc(Cn2nc(C(=O)Nc3ccc4c(c3)OCO4)c3c2CCC3)cc1 [Compound 150, N-(benzo[d][1,3]dioxol-5-yl)-1-(4-(methylsulfonyl)benzyl)-1,4,5,6-tetrahydrocyclopenta[c]pyrazole-3-carboxamide] was tested, and the activity at 1 µM (test compound concentration 1 μM) was < 200%.
With CCN(CC)C(=O)c1ccc(Cn2nc(C(=O)Nc3ccc4c(c3)OCO4)c3ccccc32)cc1 [Compound 151, N-(benzo[d][1,3]dioxol-5-yl)-1-(4-(diethylcarbamoyl)benzyl)-1H-indazole-3-carboxamide] the activity at 10 µM was < 200%.
CC(C)S(=O)(=O)c1ccc(Cn2nc(C(=O)Nc3ccc4c(c3)OCO4)c3ccccc32)cc1 [Compound 152, N-(benzo[d][1,3]dioxol-5-yl)-1-(4-(isopropylsulfonyl)benzyl)-1H-indazole-3-carboxamide] was tested, and the activity at 10 µM was < 200%.
In the case of CCc1ccc(Cn2nc(C(=O)Nc3ccc4c(c3)OCO4)c3ccccc32)nc1 [Compound 153, N-(benzo[d][1,3]dioxol-5-yl)-1-((5-ethylpyridin-2-yl)methyl)-1H-indazole-3-carboxamide], the activity at 10 µM is reported as < 200%.
CC(C)c1nc(Cn2nc(C(=O)Nc3ccc4c(c3)OCO4)c3ccccc32)no1 [Compound 154, N-(benzo[d][1,3]dioxol-5-yl)-1-((5-isopropyl-1,2,4-oxadiazol-3-yl)methyl)-1H-indazole-3-carboxamide] was tested, and the activity at 10 µM was < 200%.
With CCc1nnc(Cn2nc(C(=O)Nc3ccc4c(c3)OCO4)c3ccccc32)o1 [Compound 155] the activity at 10 µM was < 200%.
CCS(=O)(=O)c1ccc(Cn2nc(C(=O)Nc3ccc4c(c3)OCO4)c3ccccc32)cc1 [Compound 156, N-(benzo[d][1,3]dioxol-5-yl)-1-(4-(ethylsulphonyl)benzyl)-1H-indazole-3-carboxamide] was tested, and the activity at 10 µM was 201 to 300%.
CS(=O)(=O)c1ccc(Cn2nc(C(=O)O)c3ccccc32)cc1 [Compound 157, 1-(4-(methylsulphonyl)benzyl)-1H-indazole-3-carboxylic acid] was tested, and the activity at 10 µM was < 200%.
Compound CCc1ccc(Cn2nc(C(=O)Nc3ccc4c(c3)OCCO4)c3ccccc32)cc1 [Compound 158, N-(2,3-dihydrobenzo[b][1,4]dioxin-6-yl)-1-(4-ethylbenzyl)-1H-indazole-3-carboxamide] has an activity at 10 µM of 201 to 300%.
CCc1ccc(Cn2nc(C(=O)Nc3ccc4c(c3)OC(F)(F)C(F)(F)O4)c3ccccc32)cc1 [Compound 159, 1-(4-ethylbenzyl)-N-(2,2,3,3-tetrafluoro-2,3-dihydrobenzo[b][1,4]dioxin-6-yl)-1H-indazole-3-carboxamide] was tested, and the activity at 10 µM was < 200%.
For O=C(Nc1ccc2c(c1)OCCO2)c1nn(Cc2ccc(C(=O)N3CCOCC3)cc2)c2ccc(F)cc12 [Compound 160, N-(2,3-dihydrobenzo[b][1,4]dioxin-6-yl)-5-fluoro-1-(4-(morpholine-4-carbonyl)benzyl)-1H-indazole-3-carboxamide], the activity at 10 µM was < 200%.
O=C(Nc1ccc2c(c1)OC(F)(F)C(F)(F)O2)c1nn(Cc2ccc(C(=O)N3CCOCC3)cc2)c2ccccc12 [Compound 161, 1-(4-(morpholine-4-carbonyl)benzyl)-N-(2,2,3,3-tetrafluoro-2,3-dihydrobenzo[b][1,4]dioxin-6-yl)-1H-indazole-3-carboxamide] gave an activity at 10 µM of 201 to 300%.
With O=C(Nc1ccc2c(c1)OCCO2)c1nn(Cc2ccc(C(=O)N3CCOCC3)cc2)c2cc(F)ccc12 [Compound 162, N-(2,3-dihydrobenzo[b][1,4]dioxin-6-yl)-6-fluoro-1-(4-(morpholine-4-carbonyl)benzyl)-1H-indazole-3-carboxamide] the activity at 10 µM was 201 to 300%.
O=C(Nc1ccc2c(c1)OCCO2)c1nn(Cc2ccc(C(=O)N3CCOCC3)cc2)c2cc(C(F)(F)F)ccc12 [Compound 163, N-(2,3-dihydrobenzo[b][1,4]dioxin-6-yl)-1-(4-(morpholine-4-carbonyl)benzyl)-6-(trifluoromethyl)-1H-indazole-3-carboxamide] was tested, and the activity at 10 µM was < 200%.
